What all share (assay type): in vivo
The test system of one data set is Myzus persicae. In words: Myzus persicae test, immersion of infested cabbage leaves. An excerpt: (§1) The action to be expected for a given combination of two active substance can be calculated as follows according to S. R. Colby, Weeds 15 (1967), 20-22:
(§2) If • X stands for the mortality rate expressed in % of the untreated control upon the use of active substance A at an application amount of m g/ha or in a concentration of m ppm, • Y stands for the mortality rate expressed in % of the untreated control upon the use of active substance B at an application amount of n g/ha or in a concentration of n ppm, and • E stands for the mortality rate expressed in % of the untreated control upon the use of active substances A and B at an application amount of m and n g/ha or in a concentration of m and n ppm, then [formula]
(§3) If the actual insecticidal mortality rate is greater than calculated, then the combination is […] in its mortality; that is to say, a synergistic effect is present. In this case the mortality rate that is actually observed must be greater than the value for the expected mortality rate (E) calculated from the formula presented above.
(§4) To produce a suitable active substance preparation, one mixes 1 part by weight of active substance with the listed amount of solvent and emulsifier and dilutes the concentrate with water containing an emulsifier at the desired concentration.
Cabbage leaves (Brassica oleracea) that are severely afflicted by the green peach aphid (Myzus persicae) are treated by immersion in the active substance preparation of the desired concentration.
After […] the mortality in % is determined. In the process, 100% means that all green peach aphids were killed; 0% means that no green peach aphids were killed. One calculates the determined mortality rate according to the Colby formula (see page 1).

Data set [1] has as its system Phaedon cochleariae larvae. In words: Phaedon cochleariae larvae test, treated cabbage leaves. To be noted: 144 h, after 6 d.
Excerpt: as §1, §2, §3, §4
Cabbage leaves (Brassica oleracea) are treated by immersion in the active substance preparation of the desired concentration and filled with mustard beetle larvae (Phaedon cochleariae) for as long as the leaves are still damp.
After […] the mortality in % is determined. In the process, 100% means that all beetle larvae were killed; 0% means that no beetle larvae were killed. One determines the determined mortality rate according to the Colby formula (see page 1).

In data set [2] the test system is Plutella xylostella (sensitive strain). In words: Plutella xylostella test (sensitive strain), treated cabbage leaves. To be noted: 144 h, after 6 d, normal sensitivity.
Excerpt: as §1, §2, §3, §4
(§5) Cabbage leaves (Brassica oleracea) are treated by immersion in the active substance preparation of the desired concentration and filled with cabbage moth larvae (Plutella xylostella) for as long as the leaves are still damp.
(§6) After […] the mortality in % is determined. In the process, 100% means that all larvae were killed; 0% means that no larvae were killed. One determines the determined mortality rate according to the Colby formula (see page 1).

Data set [3] deals with Plutella xylostella (resistant strain). In words: Plutella xylostella test (resistant strain), treated cabbage leaves. To be noted: 144 h, after 6 d.
Excerpt: as §1, §2, §3, §4, §5, §6

The subject of a further data set is Heliothis armigera. The experiment in a line: Heliothis armigera test, treated cotton leaves with larvae. To be noted: Helicoverpa armigera, 144 h, after 6 d.
Excerpt: as §1, §2, §3, §4
Cotton leaves (Gossypium hirsutum) are treated by immersion in the active substance preparation of the desired concentration and filled with cotton bollworm larvae (Heliothis armigera) for as long as the leaves are still damp.
as §6

The next data set relates to Spodoptera exigua. The experiment in a line: Spodoptera exigua test, treated cabbage leaves. To be noted: 144 h, after 6 d.
Excerpt: as §1, §2
(§7) If the actual insecticidal mortality rate is greater than calculated, then the combination is […] in its mortality; that is to say, a synergistic effect is present. In this case the mortality rate that is actually observed must be greater than the value for the expected mortality rate (E) calculated from the formula presented above. […]
(§8) After […] the mortality in % is determined. […] One determines the determined mortality rate according to the Colby formula (see page 1).

A further data set concerns Spodoptera frugiperda. The experiment in a line: Spodoptera frugiperda test, treated cabbage leaves. To be noted: 72 h, after 3 d.
Excerpt: as §1, §2, §7, §8

The test system of another data set is Aphis gossypii. The experiment in a line: Aphis gossypii test, immersion of infested cotton leaves. To be noted: 24 h, after 1 d.
Excerpt: as §1, §2, §7
After […] the mortality in % is determined. […] One calculates the determined mortality rate according to the Colby formula (see page 1).

Several values for one entry are separate records, joined by “and”; a condition that tells them apart may be missing. Equal entries are not always repeated.

What is called mortality is the share of the test organisms that died. For the compound `Cc1c(COC(=O)C2C(/C=C(\Cl)C(F)(F)F)C2(C)C)cccc1-c1ccccc1` (stereo not drawn) [Bifenthrin], in the data set on Myzus persicae (Myzus persicae, 144 h, read-out: Mortality in % after 6 d, 0.16 ppm, after 6 d), the mortality at 0.16 ppm was 0%. Also, the mortality at 0.8 ppm in data set [1] (0.8 ppm) is 35%.
As to `CC1(C)C(C=C(Cl)Cl)C1C(=O)OC(C#N)c1ccc(F)c(Oc2ccccc2)c1` (stereo not drawn) [Beta-cyfluthrin, Betacyfluthrin], the mortality at 0.024 ppm in data set [2] amounted to 10%. For the same compound, the mortality at 0.12 ppm in the data set on Myzus persicae (Myzus persicae, 144 h, read-out: Mortality in % after 6 d, 0.12 ppm, after 6 d) worked out at 0%; in the data set with Heliothis armigera it was 0%; in data set [1] (0.12 ppm), 15%; with Spodoptera frugiperda (0.12 ppm) it was 5%; with Aphis gossypii (0.12 ppm) it was 5%. Also, the mortality at 0.6 ppm in data set [3] stood at 35%; in the data set on Spodoptera exigua (0.6 ppm), 25%.
For the compound `CC1(C)C(/C=C(\Cl)C(F)(F)F)C1C(=O)OC(C#N)c1cccc(Oc2ccccc2)c1` (stereo not drawn) [Lambda-cyhalothrin], in data set [2], the mortality at 0.024 ppm was determined as 40%. For the same compound, in data set [3], the mortality at 0.6 ppm was 40%. In the data set on Heliothis armigera, the mortality at 0.12 ppm came to 55%.
Turning to `N#C/N=C1\SCCN1Cc1ccc(Cl)nc1` [Thiacloprid, thiacloprid], the mortality at 0.6 ppm amounted to 0% in data set [2] (0.6 ppm); 35% in the data set with Myzus persicae (Myzus persicae, 144 h, read-out: Mortality in % after 6 d, 0.6 ppm, after 6 d); 0% in the data set with Heliothis armigera (0.6 ppm); 0% with Spodoptera frugiperda (0.6 ppm); 35% in the data set with Aphis gossypii (0.6 ppm). In addition, the “Mortality in % after 6 d” value in the data set on Myzus persicae (0.8 ppm, after 6 d) was 0% and 10%. Moreover, the mortality at 3 ppm is 0% in data set [3] (3 ppm) and 15% in data set [1] (3 ppm). The mortality at 15 ppm turned out to be 10% in data set [3] (15 ppm) and 0% in the data set with Spodoptera exigua (15 ppm). Further, the mortality at 0.12 ppm with Heliothis armigera turned out to be 0%. Also, the mortality at 20 ppm in data set [1] (20 ppm) was found to be 40%.
As for `CC1(C)C(C=C(Cl)Cl)C1C(=O)OC(C#N)c1cccc(Oc2ccccc2)c1` (stereo not drawn) [Alpha-cypermethrin, Alpha-Cypermethrin], the mortality at 0.16 ppm in data set [1] is 5%.
Regarding `CC1(C)[C@H](C(=O)O[C@H](C#N)c2cccc(Oc3ccccc3)c2)[C@@H]1C=C(Br)Br` [Deltamethrin], the mortality at 0.16 ppm in data set [1] turned out to be 30%.

(Values after US20070276013A1, “Active Substance Combinations with Insecticidal Properties” (priority 2004, published 2007).)
